Data as given in patent US20240024273A1, “TOPICAL ADMINISTRATION OF 2-(DIETHYLAMINO)ETHYL 2-(4-ISOBUTYLPHENYL)PROPRIONATE FOR TREATMENT OF DISEASES” (TECHFIELDS PHARMA CO., LTD., priority 2020, published 2024).

Test system: Subjects with Osteoarthritis of the Knee
Assay: Second Phase 2 study: safety (treatment-emergent adverse events)
Assay type: in vivo, human
Source text: Safety assessments will be performed at each visit and will include assessment of AEs, vital signs (blood pressure, pulse rate, and oral temperature), clinical laboratories, physical examination, skin irritation, and electrocardiograms (ECGs) as indicated in the study flow chart, Table 47.
Safety assessments will include AEs, vital signs (blood pressures, pulse rate, and oral temperature), clinical laboratories, physical examination, skin irritation, and ECGs at various time points during the study as indicated in the study flow chart.
Adverse events of interest include: local skin reactions around the treated knee(s), upper stomach pain, GI bleeding, serious cardiovascular side effects (e.g., thrombotic events, myocardial infarction, or stroke), jaundice, elevated liver function tests, and nausea.
Safety analyses will be conducted on the SAS. Safety parameters will be listed and summarized using standard descriptive statistics, as appropriate. No formal statistical analyses are planned.

SMILES: CCN(CC)CCOC(=O)C(C)c1ccc(CC(C)C)cc1 (stereo not drawn) [2-(diethylamino)ethyl 2-(4-isobutylphenyl)propionate]
- Abdominal Discomfort: percentage of subjects with adverse events (8.75 mg/knee, BID, N = 70): 4.3%
- Abdominal Discomfort: subjects with adverse events (8.75 mg/knee, BID, N = 70): 3
- Abdominal Pain Upper: number of adverse events (8.75 mg/knee, BID, N = 70): 1
- Abdominal Pain Upper: percentage of subjects with adverse events (8.75 mg/knee, BID, N = 70): 1.4%
- Abdominal Pain Upper: subjects with adverse events (8.75 mg/knee, BID, N = 70): 1
- Administration Site Conditions: number of adverse events (8.75 mg/knee, BID, N = 70): 1
- Administration Site Conditions: percentage of subjects with adverse events (8.75 mg/knee, BID, N = 70): 1.4%
- Administration Site Conditions: subjects with adverse events (8.75 mg/knee, BID, N = 70): 1
- Alanine Aminotransferase Increased: number of adverse events (8.75 mg/knee, BID, N = 70): 1
- Alanine Aminotransferase Increased: percentage of subjects with adverse events (8.75 mg/knee, BID, N = 70): 1.4%
- Alanine Aminotransferase Increased: subjects with adverse events (8.75 mg/knee, BID, N = 70): 1
- Application Site Irritation: number of adverse events (8.75 mg/knee, BID, N = 70): 1
- Application Site Irritation: percentage of subjects with adverse events (8.75 mg/knee, BID, N = 70): 1.4%
- Application Site Irritation: subjects with adverse events (8.75 mg/knee, BID, N = 70): 1
- Back Pain: number of adverse events (8.75 mg/knee, BID, N = 70): 2(%)[2]
- Back Pain: subjects with adverse events, number (percentage) (8.75 mg/knee, BID, N = 70): 2(%)[2]
- Blood Lactate Dehydrogenase Increased: number of adverse events (8.75 mg/knee, BID, N = 70): 1
- Blood Lactate Dehydrogenase Increased: percentage of subjects with adverse events (8.75 mg/knee, BID, N = 70): 1.4%
- Blood Lactate Dehydrogenase Increased: subjects with adverse events (8.75 mg/knee, BID, N = 70): 1
- Diarrhoea: number of adverse events (8.75 mg/knee, BID, N = 70): 2
- Diarrhoea: percentage of subjects with adverse events (8.75 mg/knee, BID, N = 70): 2.9%
- Diarrhoea: subjects with adverse events (8.75 mg/knee, BID, N = 70): 2
- Dizziness: number of adverse events (8.75 mg/knee, BID, N = 70): 2
- Dizziness: subjects with adverse events, number (percentage) (8.75 mg/knee, BID, N = 70): 2(2.9%)
- Ear and Labyrinth Disorders: number of adverse events (8.75 mg/knee, BID, N = 70): 2
- Ear and Labyrinth Disorders: percentage of subjects with adverse events (8.75 mg/knee, BID, N = 70): 2.9%
- Ear and Labyrinth Disorders: subjects with adverse events (8.75 mg/knee, BID, N = 70): 2
- Frequency of Positive Fecal Occult Blood Test (8.75 mg/knee, BID, N = 70): 6
- Gastrointestinal Disorders: number of adverse events (8.75 mg/knee, BID, N = 70): 11
- Gastrointestinal Disorders: percentage of subjects with adverse events (8.75 mg/knee, BID, N = 70): 14.3%
- Gastrointestinal Disorders: subjects with adverse events (8.75 mg/knee, BID, N = 70): 10
- Headache: number of adverse events (8.75 mg/knee, BID, N = 70): 6
- Headache: subjects with adverse events, number (percentage) (8.75 mg/knee, BID, N = 70): 4(5.7%)
- Hypercholesterolaemia: number of adverse events (8.75 mg/knee, BID, N = 70): 5
- Hypercholesterolaemia: percentage of subjects with adverse events (8.75 mg/knee, BID, N = 70): 7.1%
- Hypercholesterolaemia: subjects with adverse events (8.75 mg/knee, BID, N = 70): 5
- Hypertension: number of adverse events (8.75 mg/knee, BID, N = 70): 1
- Hypertension: percentage of subjects with adverse events (8.75 mg/knee, BID, N = 70): 1.4%
- Hypertension: subjects with adverse events (8.75 mg/knee, BID, N = 70): 1
- Hypertriglyceridemia: number of adverse events (8.75 mg/knee, BID, N = 70): 3
- Hypertriglyceridemia: percentage of subjects with adverse events (8.75 mg/knee, BID, N = 70): 4.3%
- Hypertriglyceridemia: subjects with adverse events (8.75 mg/knee, BID, N = 70): 3
- Hypoaesthesia: number of adverse events (8.75 mg/knee, BID, N = 70): 1
- Hypoaesthesia: subjects with adverse events, number (percentage) (8.75 mg/knee, BID, N = 70): 1(1.4%)
- Infections and Infestations: number of adverse events (8.75 mg/knee, BID, N = 70): 20
- Infections and Infestations: subjects with adverse events, number (percentage) (8.75 mg/knee, BID, N = 70): 20(28.6%)
- Influenza: number of adverse events (8.75 mg/knee, BID, N = 70): 1
- Influenza: subjects with adverse events, number (percentage) (8.75 mg/knee, BID, N = 70): 1(1.4%)
- Investigations: number of adverse events (8.75 mg/knee, BID, N = 70): 5
- Investigations: percentage of subjects with adverse events (8.75 mg/knee, BID, N = 70): 7.1%
- Investigations: subjects with adverse events (8.75 mg/knee, BID, N = 70): 5
- Joint Stiffness: number of adverse events (8.75 mg/knee, BID, N = 70): 1(%)[1]
- Joint Stiffness: subjects with adverse events, number (percentage) (8.75 mg/knee, BID, N = 70): 1(%)[1]
- Metabolism and Nutrition Disorders: number of adverse events (8.75 mg/knee, BID, N = 70): 8
- Metabolism and Nutrition Disorders: percentage of subjects with adverse events (8.75 mg/knee, BID, N = 70): 12.9%
- Metabolism and Nutrition Disorders: subjects with adverse events (8.75 mg/knee, BID, N = 70): 8
- Musculoskeletal and Connective Tissue Disorders, Overall Total: number of adverse events (8.75 mg/knee, BID, N = 70): 7
- Musculoskeletal and Connective Tissue Disorders, Overall Total: subjects with adverse events, number (percentage) (8.75 mg/knee, BID, N = 70): 7(10.0%)
- Nausea: number of adverse events (8.75 mg/knee, BID, N = 70): 3
- Nausea: percentage of subjects with adverse events (8.75 mg/knee, BID, N = 70): 4.3%
- Nausea: subjects with adverse events (8.75 mg/knee, BID, N = 70): 3
- Neck Pain: number of adverse events (8.75 mg/knee, BID, N = 70): 3(%)[3]
- Neck Pain: subjects with adverse events, number (percentage) (8.75 mg/knee, BID, N = 70): 3(%)[3]
- Nervous System Disorders: number of adverse events (8.75 mg/knee, BID, N = 70): 8
- Nervous System Disorders: subjects with adverse events, number (percentage) (8.75 mg/knee, BID, N = 70): 7(10.0%)
- Oropharyngeal Pain: number of adverse events (8.75 mg/knee, BID, N = 70): 2
- Oropharyngeal Pain: subjects with adverse events, number (percentage) (8.75 mg/knee, BID, N = 70): 2(1.4%)
- Pain in Extremity: number of adverse events (8.75 mg/knee, BID, N = 70): 1(%)[1]
- Pain in Extremity: subjects with adverse events, number (percentage) (8.75 mg/knee, BID, N = 70): 1(%)[1]
- Respiratory, Thoracic and Mediastinal Disorders: number of adverse events (8.75 mg/knee, BID, N = 70): 3
- Respiratory, Thoracic and Mediastinal Disorders: subjects with adverse events, number (percentage) (8.75 mg/knee, BID, N = 70): 3(4.3%)
- Skin Irritation: number of adverse events (8.75 mg/knee, BID, N = 70): 1
- Skin Irritation: percentage of subjects with adverse events (8.75 mg/knee, BID, N = 70): 1.4%
- Skin Irritation: subjects with adverse events (8.75 mg/knee, BID, N = 70): 1
- Skin and Subcutaneous Tissue Disorders: number of adverse events (8.75 mg/knee, BID, N = 70): 1
- Skin and Subcutaneous Tissue Disorders: percentage of subjects with adverse events (8.75 mg/knee, BID, N = 70): 1.4%
- Skin and Subcutaneous Tissue Disorders: subjects with adverse events (8.75 mg/knee, BID, N = 70): 1
- Subjects with Positive Fecal Occult Blood Test (8.75 mg/knee, BID, N = 70): 5
- Subjects with Positive Fecal Occult Blood Test, percentage (8.75 mg/knee, BID, N = 70): 7.1%
- Throat Irritation: number of adverse events (8.75 mg/knee, BID, N = 70): 1
- Throat Irritation: subjects with adverse events, number (percentage) (8.75 mg/knee, BID, N = 70): 1(1.4%)
- Thrombosis: number of adverse events (8.75 mg/knee, BID, N = 70): 1
- Thrombosis: percentage of subjects with adverse events (8.75 mg/knee, BID, N = 70): 1.4%
- Thrombosis: subjects with adverse events (8.75 mg/knee, BID, N = 70): 1
- Tooth Infection: number of adverse events (8.75 mg/knee, BID, N = 70): 1
- Tooth Infection: subjects with adverse events, number (percentage) (8.75 mg/knee, BID, N = 70): 1(1.4%)
- Toothache: number of adverse events (8.75 mg/knee, BID, N = 70): 1
- Toothache: percentage of subjects with adverse events (8.75 mg/knee, BID, N = 70): 1.4%
- Toothache: subjects with adverse events (8.75 mg/knee, BID, N = 70): 1
- Transaminases Increased: number of adverse events (8.75 mg/knee, BID, N = 70): 1
- Transaminases Increased: percentage of subjects with adverse events (8.75 mg/knee, BID, N = 70): 1.4%
- Transaminases Increased: subjects with adverse events (8.75 mg/knee, BID, N = 70): 1
- Upper Respiratory Tract Infection: number of adverse events (8.75 mg/knee, BID, N = 70): 12
- Upper Respiratory Tract Infection: subjects with adverse events, number (percentage) (8.75 mg/knee, BID, N = 70): 12(15.7%)
- Urinary Tract Infection: number of adverse events (8.75 mg/knee, BID, N = 70): 6
- Urinary Tract Infection: subjects with adverse events, number (percentage) (8.75 mg/knee, BID, N = 70): 6(8.6%)
- Vascular Disorders: number of adverse events (8.75 mg/knee, BID, N = 70): 2
- Vascular Disorders: percentage of subjects with adverse events (8.75 mg/knee, BID, N = 70): 2.9%
- Vascular Disorders: subjects with adverse events (8.75 mg/knee, BID, N = 70): 2
- Vertigo: number of adverse events (8.75 mg/knee, BID, N = 70): 2(%)[2]
- Vertigo: subjects with adverse events (8.75 mg/knee, BID, N = 70): 2(%)[2]
- White Blood Cell Count Decreased: number of adverse events (8.75 mg/knee, BID, N = 70): 2
- White Blood Cell Count Decreased: percentage of subjects with adverse events (8.75 mg/knee, BID, N = 70): 2.9%
- White Blood Cell Count Decreased: subjects with adverse events (8.75 mg/knee, BID, N = 70): 2
- GI disorders incidence rate (17.5 mg/knee (BID)): 5.7%
- incidence rate of AEs possibly, probably, or definitely related to study drug (17.5 mg/knee (BID)): 35.7%
- infections and infestations incidence rate (17.5 mg/knee (BID)): 18.6%
- positive fecal occult blood test incidence rate (17.5 mg/knee (BID)): 7.1%
- Abdominal Discomfort: number of adverse events (17.5 mg/knee, BID, N = 70): 1
- Abdominal Discomfort: percentage of subjects with adverse events (17.5 mg/knee, BID, N = 70): 1.4%
- Abdominal Discomfort: subjects with adverse events (17.5 mg/knee, BID, N = 70): 1
- Abdominal Pain Upper: number of adverse events (17.5 mg/knee, BID, N = 70): 2
- Abdominal Pain Upper: percentage of subjects with adverse events (17.5 mg/knee, BID, N = 70): 1.4%
- Abdominal Pain Upper: subjects with adverse events (17.5 mg/knee, BID, N = 70): 1
- Administration Site Conditions: number of adverse events (17.5 mg/knee, BID, N = 70): 4
- Administration Site Conditions: percentage of subjects with adverse events (17.5 mg/knee, BID, N = 70): 5.7%
- Administration Site Conditions: subjects with adverse events (17.5 mg/knee, BID, N = 70): 4
- Application Site Irritation: number of adverse events (17.5 mg/knee, BID, N = 70): 1
- Application Site Irritation: percentage of subjects with adverse events (17.5 mg/knee, BID, N = 70): 1.4%
- Application Site Irritation: subjects with adverse events (17.5 mg/knee, BID, N = 70): 1
- Application Site Rash: number of adverse events (17.5 mg/knee, BID, N = 70): 3
- Application Site Rash: percentage of subjects with adverse events (17.5 mg/knee, BID, N = 70): 4.3%
- Application Site Rash: subjects with adverse events (17.5 mg/knee, BID, N = 70): 3
